Test results as given in patent US6037351A, “Method of inhibiting hepatitis B virus” (priority 1996, dated 2000).
Entries after “also recorded” stand apart in the source; their conditions may differ.

Key:
[1] = tested on: mouse hepatitis virus (MHV); conditions: appearance of E2 on the cell surface is delayed; cited from earlier work
α-glucosidase I = conditions: N-linked oligosaccharide processing enzyme; cited from earlier work
α-glucosidase II = conditions: N-linked oligosaccharide processing enzyme; cited from earlier work
[2] = treatment of chronic hepatitis B; clinical tests suspended; cited from earlier work
HBV infection = conditions: patients; cited from earlier work
hepatitis B virus (HBV) [3] = test: HBV secretion under tunicamycin; assay type: cell-based; conditions: found by the present inventors
[4] = tested on: N-linked glycosylation of proteins; conditions: cited from earlier work
hepatitis B virus (HBV) [5] = conditions: previously reported; cited from earlier work
cells = conditions: cited from earlier work

## CN1C[C@H](O)[C@@H](O)[C@H](O)[C@H]1CO [N-methyl deoxynojirimycin]
[1]
  formation of mouse hepatitis virus (in words): inhibit the formation of mouse hepatitis virus (MHV)

## OC[C@H]1NC[C@H](O)[C@@H](O)[C@@H]1O [DNJ, 1,5-Dideoxy-1,5-imino-D-glucitol, reference compound]
α-glucosidase I
  inhibition of α-glucosidase I (in words): known inhibitors
α-glucosidase II
  inhibition of α-glucosidase II (in words): known inhibitors

## O=c1[nH]c(=O)n([C@@H]2O[C@H](CO)[C@@H](O)[C@@H]2F)cc1I [fialuridine]
[2]
  drug-related liver failure in patients: six of 20 patients

## Alpha interferon
HBV infection
  treatment of HBV infection (in words): promising results in some patients

## tunicamycin
Hepatitis B virus (HBV) [3]; subviral particles
  secretion of subviral particles (in words): not subviral particles is inhibited
Hepatitis B virus (HBV) [3]; virions
  secretion of HBV virions (in words): inhibited
[4]
  N-linked glycosylation of proteins (in words): complete inhibition
Hepatitis B virus (HBV) [5]
  HBV secretion from HBV infected or HBV-producing cells (in words): no significant reduction of HBV secretion; also recorded: normal HBV particle secretion
cells
  toxicity to cells (in words): very toxic to cells
